Laboratory results as given in BindingDB's records for doi:10.1111/j.1432-1033.1992.tb17043.x (Universit&Eacute, 1992).
Non-standard residues stand in square brackets, D forms with d. Residues, ends and D or L forms follow the SMILES beside them. ξ: configuration not given here. Ile(3ξ) = CCC(C)[C@H](N)C(=O)O

Molecular target: T1, Pituitary adenylate cyclase-activating polypeptide (Homo sapiens, UniProt P18509)
T1 sequence (P18509 whole entry): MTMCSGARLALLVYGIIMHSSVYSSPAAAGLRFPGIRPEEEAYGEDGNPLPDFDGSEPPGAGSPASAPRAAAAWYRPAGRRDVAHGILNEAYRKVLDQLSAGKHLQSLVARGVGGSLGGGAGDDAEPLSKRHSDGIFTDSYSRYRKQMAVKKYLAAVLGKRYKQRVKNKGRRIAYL

| Molecule | Ki |
| --- | --- |
| CCC(C)[C@H](NC(=O)CNC(=O)[C@H](CC(=O)O)NC(=O)[C@@H](Cc1ccccc1)NC(=O)[C@@H](N)Cc1cnc[nH]1)C(=O)N[C@@H](Cc1ccccc1)C(=O)N[C@H](C(=O)N[C@@H](CC(=O)O)C(=O)N[C@@H](CO)C(=O)N[C@@H](Cc1ccc(O)cc1)C(=O)N[C@@H](CO)C(=O)N[C@@H](CCCN=C(N)N)C(=O)N[C@@H](Cc1ccc(O)cc1)C(=O)N[C@@H](CCCN=C(N)N)C(=O)N[C@@H](CCCCN)C(=O)N[C@@H](CCC(N)=O)C(=O)N[C@@H](CCSC)C(=O)N[C@@H](C)C(=O)N[C@H](C(=O)N[C@@H](CCCCN)C(=O)N[C@@H](CCCCN)C(=O)N[C@@H](Cc1ccc(O)cc1)C(=O)N[C@@H](CC(C)C)C(=O)N[C@@H](C)C(=O)N[C@@H](C)C(=O)N[C@H](C(=O)N[C@@H](CC(C)C)C(N)=O)C(C)C)C(C)C)[C@@H](C)O (stereo partly drawn) [[D-Phe2]PACAP-27] | 300 nM |
| CCC(C)[C@H](NC(=O)CNC(=O)[C@H](CC(=O)O)NC(=O)[C@@H](Cc1ccccc1)NC(=O)[C@@H](N)Cc1cnc[nH]1)C(=O)N[C@@H](Cc1ccccc1)C(=O)N[C@H](C(=O)N[C@@H](CC(=O)O)C(=O)N[C@@H](CO)C(=O)N[C@@H](Cc1ccc(O)cc1)C(=O)N[C@@H](CO)C(=O)N[C@@H](CCCN=C(N)N)C(=O)N[C@@H](Cc1ccc(O)cc1)C(=O)N[C@@H](CCCN=C(N)N)C(=O)N[C@@H](CCCCN)C(=O)N[C@@H](CCC(N)=O)C(=O)N[C@@H](CCSC)C(=O)N[C@@H](C)C(=O)N[C@H](C(=O)N[C@@H](CCCCN)C(=O)N[C@@H](CCCCN)C(=O)N[C@@H](Cc1ccc(O)cc1)C(=O)N[C@@H](CC(C)C)C(=O)N[C@@H](C)C(=O)N[C@@H](C)C(=O)N[C@H](C(=O)N[C@@H](CC(C)C)C(=O)NCC(=O)N[C@@H](CCCCN)C(=O)N[C@@H](CCCN=C(N)N)C(=O)N[C@@H](Cc1ccc(O)cc1)C(=O)N[C@@H](CCCCN)C(=O)N[C@@H](CCC(N)=O)C(=O)N[C@@H](CCCN=C(N)N)C(=O)N[C@H](C(=O)N[C@@H](CCCCN)C(=O)N[C@@H](CC(N)=O)C(=O)N[C@@H](CCCCN)C(N)=O)C(C)C)C(C)C)C(C)C)[C@@H](C)O (stereo partly drawn) [[D-Phe2]PACAP-38] (H-H[dF]DG[Ile(3ξ)]FTDSYSRYRKQMAVKKYLAAVLGKRYKQRVKNK-NH2) | 10 nM |
| CCC(C)[C@H](NC(=O)CNC(=O)[C@H](CC(=O)O)NC(=O)[C@H](Cc1ccccc1)NC(=O)[C@@H](N)Cc1cnc[nH]1)C(=O)N[C@@H](Cc1ccccc1)C(=O)N[C@H](C(=O)N[C@@H](CC(=O)O)C(=O)N[C@@H](CO)C(=O)N[C@@H](Cc1ccc(O)cc1)C(=O)N[C@@H](CO)C(=O)N[C@@H](CCCN=C(N)N)C(=O)N[C@@H](Cc1ccc(O)cc1)C(=O)N[C@@H](CCCN=C(N)N)C(=O)N[C@@H](CCCCN)C(=O)N[C@@H](CCC(N)=O)C(=O)N[C@@H](CCSC)C(=O)N[C@@H](C)C(=O)N[C@H](C(=O)N[C@@H](CCCCN)C(=O)N[C@@H](CCCCN)C(=O)N[C@@H](Cc1ccc(O)cc1)C(=O)N[C@@H](CC(C)C)C(=O)N[C@@H](C)C(=O)N[C@@H](C)C(=O)N[C@H](C(=O)N[C@@H](CC(C)C)C(N)=O)C(C)C)C(C)C)[C@@H](C)O (some centres not stated) [[Phe2]PACAP(1-27)] | 200 nM |
| CCC(C)[C@H](NC(=O)CNC(=O)[C@H](CC(=O)O)NC(=O)[C@H](Cc1ccccc1)NC(=O)[C@@H](N)Cc1cnc[nH]1)C(=O)N[C@@H](Cc1ccccc1)C(=O)N[C@H](C(=O)N[C@@H](CC(=O)O)C(=O)N[C@@H](CO)C(=O)N[C@@H](Cc1ccc(O)cc1)C(=O)N[C@@H](CO)C(=O)N[C@@H](CCCN=C(N)N)C(=O)N[C@@H](Cc1ccc(O)cc1)C(=O)N[C@@H](CCCN=C(N)N)C(=O)N[C@@H](CCCCN)C(=O)N[C@@H](CCC(N)=O)C(=O)N[C@@H](CCSC)C(=O)N[C@@H](C)C(=O)N[C@H](C(=O)N[C@@H](CCCCN)C(=O)N[C@@H](CCCCN)C(=O)N[C@@H](Cc1ccc(O)cc1)C(=O)N[C@@H](CC(C)C)C(=O)N[C@@H](C)C(=O)N[C@@H](C)C(=O)N[C@H](C(=O)N[C@@H](CC(C)C)C(=O)NCC(=O)N[C@@H](CCCCN)C(=O)N[C@@H](CCCN=C(N)N)C(=O)N[C@@H](Cc1ccc(O)cc1)C(=O)N[C@@H](CCCCN)C(=O)N[C@@H](CCC(N)=O)C(=O)N[C@@H](CCCN=C(N)N)C(=O)N[C@H](C(=O)N[C@@H](CCCCN)C(=O)N[C@@H](CC(N)=O)C(=O)N[C@@H](CCCCN)C(N)=O)C(C)C)C(C)C)C(C)C)[C@@H](C)O (some centres not stated) [[Phe2]PACAP(1-38)] (H-HFDG[Ile(3ξ)]FTDSYSRYRKQMAVKKYLAAVLGKRYKQRVKNK-NH2) | 10 nM |
| H-FTDSYSRYRKQMAVKKYLAAVL-NH2 [PACAP(5-27)] | 60 nM |
| H-TDSYSRYRKQMAVKKYLAAVL-NH2 [PACAP(6-27)] | 200 nM |
| H-TDSYSRYRKQMAVKKYLAAVLGKRYKQRVKNK-NH2 [PACAP(7-38)] | 8 nM |
